The values below come from ChEMBL document CHEMBL5247642, “Structural Optimization of Fibroblast Growth Factor Receptor Inhibitors for Treating Solid Tumors” (J Med Chem, 2023).

Values after ≈ are worked out from the molar mass of the structure shown. Active and inactive are the calls of the source. No cut-off for these calls is given here.

Voltage-gated inwardly rectifying potassium channel KCNH2, sequence (Q12809 whole entry): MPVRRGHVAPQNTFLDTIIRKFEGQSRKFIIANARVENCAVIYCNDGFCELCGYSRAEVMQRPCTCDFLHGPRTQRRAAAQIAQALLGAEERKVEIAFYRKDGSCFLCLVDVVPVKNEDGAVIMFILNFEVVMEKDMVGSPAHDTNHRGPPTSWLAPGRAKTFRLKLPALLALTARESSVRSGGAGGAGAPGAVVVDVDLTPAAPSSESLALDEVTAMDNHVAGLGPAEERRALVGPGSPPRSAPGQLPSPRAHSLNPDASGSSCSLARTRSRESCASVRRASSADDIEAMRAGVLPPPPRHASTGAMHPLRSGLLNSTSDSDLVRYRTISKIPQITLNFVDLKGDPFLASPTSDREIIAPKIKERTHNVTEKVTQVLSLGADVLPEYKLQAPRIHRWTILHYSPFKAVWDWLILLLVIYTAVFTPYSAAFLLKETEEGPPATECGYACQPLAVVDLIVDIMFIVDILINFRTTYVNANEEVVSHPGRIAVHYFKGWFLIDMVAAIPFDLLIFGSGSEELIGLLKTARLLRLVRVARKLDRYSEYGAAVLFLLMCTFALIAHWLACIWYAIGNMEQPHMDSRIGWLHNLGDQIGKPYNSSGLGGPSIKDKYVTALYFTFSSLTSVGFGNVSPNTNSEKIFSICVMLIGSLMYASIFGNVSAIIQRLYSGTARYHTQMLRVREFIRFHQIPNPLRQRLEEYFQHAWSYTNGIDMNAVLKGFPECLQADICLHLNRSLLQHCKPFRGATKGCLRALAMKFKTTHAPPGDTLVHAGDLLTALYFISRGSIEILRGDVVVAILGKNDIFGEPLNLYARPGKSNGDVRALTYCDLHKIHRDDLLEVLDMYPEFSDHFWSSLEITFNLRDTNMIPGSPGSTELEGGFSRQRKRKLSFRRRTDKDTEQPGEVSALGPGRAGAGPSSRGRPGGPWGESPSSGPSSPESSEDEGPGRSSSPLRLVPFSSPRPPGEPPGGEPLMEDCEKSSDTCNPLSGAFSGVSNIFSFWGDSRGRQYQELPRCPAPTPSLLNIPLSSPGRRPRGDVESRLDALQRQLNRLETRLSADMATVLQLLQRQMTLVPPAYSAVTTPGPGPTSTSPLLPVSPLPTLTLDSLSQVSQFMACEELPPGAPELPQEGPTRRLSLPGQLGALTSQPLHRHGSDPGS
Fibroblast growth factor receptor 3, sequence (P22607 whole entry): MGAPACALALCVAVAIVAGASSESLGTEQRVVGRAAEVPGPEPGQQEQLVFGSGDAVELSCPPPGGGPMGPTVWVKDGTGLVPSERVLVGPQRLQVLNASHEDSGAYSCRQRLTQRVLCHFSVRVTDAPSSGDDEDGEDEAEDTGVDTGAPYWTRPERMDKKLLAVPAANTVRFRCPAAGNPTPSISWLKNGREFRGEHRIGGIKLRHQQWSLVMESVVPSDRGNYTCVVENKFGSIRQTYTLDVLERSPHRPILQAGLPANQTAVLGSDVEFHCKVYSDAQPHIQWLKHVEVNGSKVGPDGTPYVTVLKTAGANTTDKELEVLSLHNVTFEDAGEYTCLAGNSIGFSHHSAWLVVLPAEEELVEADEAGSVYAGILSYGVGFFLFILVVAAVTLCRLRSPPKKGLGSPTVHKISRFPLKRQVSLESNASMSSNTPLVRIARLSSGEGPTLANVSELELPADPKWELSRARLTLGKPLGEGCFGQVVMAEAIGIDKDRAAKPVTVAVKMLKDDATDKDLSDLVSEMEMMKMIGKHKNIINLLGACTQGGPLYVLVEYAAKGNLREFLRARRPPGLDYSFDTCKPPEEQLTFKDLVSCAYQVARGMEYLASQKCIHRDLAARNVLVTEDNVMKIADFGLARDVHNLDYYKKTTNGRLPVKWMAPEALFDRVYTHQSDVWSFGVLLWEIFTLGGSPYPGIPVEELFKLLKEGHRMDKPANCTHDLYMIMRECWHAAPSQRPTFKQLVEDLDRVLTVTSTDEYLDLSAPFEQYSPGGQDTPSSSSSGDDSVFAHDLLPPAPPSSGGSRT

The first series concerns the target Fibroblast growth factor receptor (Homo sapiens) (UniProt P22607+P11362+P22455+P21802). Kind of series: Inhibition of FGFR signalling in human SNU-16 assessed as inhibition of pErk phosphorylation at 0.1 nM incubated for 2 hrs by Western blot analysis. It is filed as cell-based.
Details: not given
Regarding `C=CC(=O)N1CCC(n2nc3c(=O)[nH]nc(N)c3c2-c2oc3ccc(C)cc3c2C)CC1`, the inhibition result was “Active”.

Tested on in another series: not listed separately
Kind of series: Stability in rat whole blood assessed as parent compound remaining measured after 2 hrs by LC-MS/MS analysis. Conditions: read-out: Stability. The class given is ADME, tissue-based.
For `C=CC(=O)N1CCC(n2nc3c(=O)[nH]nc(N)c3c2-c2oc3ccc(C)cc3c2C)CC1`, the remaining at 2 h was greater than 40%.

Tested on in another series: not listed separately
As to the kind of experiment: Solubility of compound in PBS at pH 7.4. It is filed as physicochemical.
Details: not given
As to `C=CC(=O)Nc1ccc(-n2nc3c(=O)[nH]nc(N)c3c2-c2oc3ccc(C)cc3c2C)cc1`, the solubility came out at 1 µg/mL (≈ 2.27 µM).

The target of a further series is Fibroblast growth factor receptor 4 (Homo sapiens, UniProt P22455). As to the kind of experiment: Inhibition of FGFR4 (unknown origin) using Poly (Glu,Tyr) 4:1 as substrate incubated for 60 mins in presence of ATP by ELISA analysis.
Details: not given
As to `C=CC(=O)N1CCC(n2nc3c(=O)[nH]nc(N)c3c2-c2oc3ccc(C)cc3c2C)CC1`, the IC50 was found to be 45.5 nM.

Another series concerns SNU-16. As to the kind of experiment: Antiproliferative activity against human SNU-16 cells assessed as reduction in cell viability measured for 72 hrs. The class given is functional, cell-based. Conditions: SNU-16, 72 h.
In the case of `COc1cc(CCc2cc(NC(=O)c3ccc(N4C[C@@H](C)N[C@@H](C)C4)cc3)n[nH]2)cc(OC)c1` [FEXAGRATINIB], the IC50 was 3.7 nM.
On the same count and under the same terms, next, `C=CC(=O)N1CCC(n2nc3c(=O)[nH]nc(N)c3c2-c2oc3cc(C)ccc3c2C)CC1`: less than 0.3 nM; `C=CC(=O)N1CCC(n2nc3c(=O)[nH]nc(N)c3c2-c2oc3ccc(C)cc3c2C)CC1`: less than 0.05 nM.
Same read-out and setting: next, `C#CC(=O)N1CCC(n2nc3c(=O)[nH]nc(N)c3c2-c2oc3ccc(C)cc3c2C)CC1`: less than 0.3 nM; `CCC#CC(=O)N1CCCC(n2nc3c(=O)[nH]nc(N)c3c2-c2oc3ccc(C)cc3c2C)C1` (racemic): 36.4 nM; `C=CC(=O)N1CCCC(n2nc3c(=O)[nH]nc(N)c3c2-c2oc3ccc(Cl)cc3c2C)C1` (racemic): less than 0.3 nM.
On the same count and under the same terms, next, `Cc1ccc2oc(-c3c4c(N)n[nH]c(=O)c4nn3C3CCCN(C(=O)C#CCO)C3)c(C)c2c1` (racemic): 82.9 nM; `C=CC(=O)N1CCC(n2nc3c(=O)[nH]nc(N)c3c2-c2oc3ccc(Cl)cc3c2C)CC1`: 9 nM.
As to `CC#CC(=O)N1CCCC(n2nc3c(=O)[nH]nc(N)c3c2-c2oc3ccc(C)cc3c2C)C1` (racemic), the 50% inhibitory concentration (IC50) turned out to be 35.2 nM.
For the compound `C=CC(=O)N[C@H]1CC[C@H](n2nc3c(=O)[nH]nc(N)c3c2-c2oc3ccc(C)cc3c2C)CC1`, the concentration for half-maximal inhibition (IC50) came out at 3.1 nM.
Same read-out and setting: next, `C=CC(=O)N1CCC(n2nc3c(=O)[nH]nc(N)c3c2-c2oc3cc(OC)ccc3c2C)CC1`: 8.9 nM.
The same measure, in the same setting: next, `CC#CC(=O)N1CCC(n2nc3c(=O)[nH]nc(N)c3c2-c2oc3ccc(C)cc3c2C)CC1`: less than 0.3 nM.
As to `C=CC(=O)N1CCC(Cn2nc3c(=O)[nH]nc(N)c3c2-c2oc3ccc(C)cc3c2C)CC1`, the IC50 worked out at 2 nM.
Regarding `C=CC(=O)N1CCC(n2nc3c(=O)[nH]nc(N)c3c2-c2oc3cccc(OC)c3c2C)CC1`, the IC50 was less than 0.3 nM.
On the same count and under the same terms, next, `Cc1ccc2oc(-c3c4c(N)n[nH]c(=O)c4nn3C3CCN(C(=O)C#CCO)CC3)c(C)c2c1`: 16.6 nM; `CCC#CC(=O)N1CCC(n2nc3c(=O)[nH]nc(N)c3c2-c2oc3ccc(C)cc3c2C)CC1`: less than 0.3 nM.

The target of another series is T1, Fibroblast growth factor receptor 1 (Homo sapiens, UniProt P11362). The settings on record: dose 10.0 nM, time 60.0 min.
Target sequence in this assay (P11362 22-822 limits assumed): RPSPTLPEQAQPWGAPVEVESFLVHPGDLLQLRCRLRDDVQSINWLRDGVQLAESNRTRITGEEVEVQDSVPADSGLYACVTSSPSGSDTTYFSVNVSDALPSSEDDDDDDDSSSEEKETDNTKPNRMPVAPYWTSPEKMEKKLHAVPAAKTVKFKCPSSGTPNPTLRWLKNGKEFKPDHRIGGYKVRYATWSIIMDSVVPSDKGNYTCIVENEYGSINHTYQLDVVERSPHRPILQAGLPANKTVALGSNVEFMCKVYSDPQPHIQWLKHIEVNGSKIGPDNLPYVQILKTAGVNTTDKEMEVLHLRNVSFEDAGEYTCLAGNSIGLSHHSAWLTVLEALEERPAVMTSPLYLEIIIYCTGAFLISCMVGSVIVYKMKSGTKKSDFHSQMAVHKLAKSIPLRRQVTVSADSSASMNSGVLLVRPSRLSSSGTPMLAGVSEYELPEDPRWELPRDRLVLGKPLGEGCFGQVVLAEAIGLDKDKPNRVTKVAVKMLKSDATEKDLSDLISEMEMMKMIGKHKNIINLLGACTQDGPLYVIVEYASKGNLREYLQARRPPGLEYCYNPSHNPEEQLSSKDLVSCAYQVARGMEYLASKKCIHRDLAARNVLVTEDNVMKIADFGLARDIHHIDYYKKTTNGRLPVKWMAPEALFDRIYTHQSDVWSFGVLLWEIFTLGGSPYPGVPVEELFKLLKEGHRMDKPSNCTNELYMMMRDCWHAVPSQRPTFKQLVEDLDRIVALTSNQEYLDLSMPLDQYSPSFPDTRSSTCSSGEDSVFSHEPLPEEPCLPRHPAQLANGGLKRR
`C=CC(=O)N1CCC(n2nc3c(=O)[nH]nc(N)c3c2-c2oc3ccc(C)cc3c2C)CC1` displayed an inhibition of 78.2%.
Same read-out and setting: next, `C=CC(=O)N[C@H]1CC[C@H](n2nc3c(=O)[nH]nc(N)c3c2-c2oc3ccc(C)cc3c2C)CC1`: 47.4%; `C=CC(=O)N1CCC(Cn2nc3c(=O)[nH]nc(N)c3c2-c2oc3ccc(C)cc3c2C)CC1`: 48.3%.

The target of another series is T1, Fibroblast growth factor receptor 1. Conditions: dose 1.0 nM, time 60.0 min.
Target sequence in this assay (P11362 22-822 limits assumed): as above
The compound `C=CC(=O)N1CCC(n2nc3c(=O)[nH]nc(N)c3c2-c2oc3ccc(C)cc3c2C)CC1` came in with an inhibition of 14.2%.
The same measure, in the same setting: next, `C=CC(=O)N[C@H]1CC[C@H](n2nc3c(=O)[nH]nc(N)c3c2-c2oc3ccc(C)cc3c2C)CC1`: 32.4%; `C=CC(=O)N1CCC(Cn2nc3c(=O)[nH]nc(N)c3c2-c2oc3ccc(C)cc3c2C)CC1`: 29.5%.

A further series addresses Fibroblast growth factor receptor 3 (Homo sapiens, UniProt P22607). As to the kind of experiment: Inhibition of FGFR3 (unknown origin) using Poly (Glu,Tyr) 4:1 as substrate incubated for 60 mins in presence of ATP by ELISA analysis.
Details: not given
Turning to `C=CC(=O)N1CCC(n2nc3c(=O)[nH]nc(N)c3c2-c2oc3ccc(C)cc3c2C)CC1`, the concentration for half-maximal inhibition (IC50) came to 18.7 nM.

The next series has as its target T1, Fibroblast growth factor receptor 1. The settings on record: dose 100.0 nM, time 60.0 min.
Target sequence in this assay (P11362 22-822 limits assumed): as above
The compound `C=CC(=O)N1CCC(n2nc3c(=O)[nH]nc(N)c3c2-c2oc3ccc(C)cc3c2C)CC1` registered an inhibition of 91.2%.
Same read-out and setting: next, `C=CC(=O)N[C@H]1CC[C@H](n2nc3c(=O)[nH]nc(N)c3c2-c2oc3ccc(C)cc3c2C)CC1`: 85.7%; `C=CC(=O)N1CCC(Cn2nc3c(=O)[nH]nc(N)c3c2-c2oc3ccc(C)cc3c2C)CC1`: 61.6%.

Tested on in another series: not listed separately
Kind of series: Solubility of compound in PBS at pH 7.4 at 1 to 100 microg/ml by laser nephelometry analysis. It is filed as physicochemical. Conditions: dose 1-100 µg/ml.
`C=CC(=O)N1CCC(n2nc3c(=O)[nH]nc(N)c3c2-c2oc3cc(C)ccc3c2C)CC1` displayed a solubility (kinetic) of 10 µg/mL (≈ 23.1 µM).
Same read-out and setting: next, `C=CC(=O)N1CCC(n2nc3c(=O)[nH]nc(N)c3c2-c2oc3ccc(C)cc3c2C)CC1`: 10 µg/mL (≈ 23.1 µM); `C#CC(=O)N1CCC(n2nc3c(=O)[nH]nc(N)c3c2-c2oc3ccc(C)cc3c2C)CC1`: 10 µg/mL (≈ 23.2 µM); `C=CC(=O)Nc1ccc(-n2nc3c(=O)[nH]nc(N)c3c2-c2oc3ccc(C)cc3c2C)cc1`: 1 µg/mL (≈ 2.27 µM).
With `CC#CC(=O)N1CCC(n2nc3c(=O)[nH]nc(N)c3c2-c2oc3ccc(C)cc3c2C)CC1`, the solubility (kinetic) stood at 1 µg/mL (≈ 2.25 µM).
Still for that read-out and setting: next, `C=CC(=O)N1CCC(Cn2nc3c(=O)[nH]nc(N)c3c2-c2oc3ccc(C)cc3c2C)CC1`: 10 µg/mL (≈ 22.4 µM).
Same read-out and setting: next, `CCC#CC(=O)N1CCC(n2nc3c(=O)[nH]nc(N)c3c2-c2oc3ccc(C)cc3c2C)CC1`: 1 µg/mL (≈ 2.18 µM).

The next series concerns NCI-H716. Kind of series: Antiproliferative activity against human NCI-H716 cells expressing FGFR2 assessed as reduction in cell viability measured after 72 hrs. The settings on record: NCI-H716, 72 h. The class given is functional, cell-based.
In the case of `COc1cc(CCc2cc(NC(=O)c3ccc(N4C[C@@H](C)N[C@@H](C)C4)cc3)n[nH]2)cc(OC)c1` [FEXAGRATINIB], the IC50 was determined as 0.6 nM.

Tested on in a further series: not listed separately
As to the kind of experiment: GSH reactivity in PBS buffer assessed as percentage peak area ratio incubated for 24 hrs by LC-MS/MS analysis. It is filed as physicochemical.
Details: not given
As for `C=CC(=O)N1CCC(n2nc3c(=O)[nH]nc(N)c3c2-c2oc3ccc(C)cc3c2C)CC1`, the Activity is reported as 84%.
The same measure, in the same setting: next, `C#CC(=O)N1CCC(n2nc3c(=O)[nH]nc(N)c3c2-c2oc3ccc(C)cc3c2C)CC1`: 0%; `CC#CC(=O)N1CCC(n2nc3c(=O)[nH]nc(N)c3c2-c2oc3ccc(C)cc3c2C)CC1`: 87%.

The next series has as its target Voltage-gated inwardly rectifying potassium channel KCNH2 (Homo sapiens, UniProt Q12809). As to the kind of experiment: Inhibition of hERG expressed in CHO cells at -80 mV holding potential by automated patch clamp method. The class given is toxicity, cell-based.
Details: not given
Take `C=CC(=O)N1CCC(n2nc3c(=O)[nH]nc(N)c3c2-c2oc3ccc(C)cc3c2C)CC1`: half-maximal inhibition (IC50) was put at 1130 nM.

Another series deals with T1, Fibroblast growth factor receptor 1. As to the kind of experiment: Inhibition of FGFR1 (unknown origin) using Poly (Glu,Tyr) 4:1 as substrate incubated for 60 mins in presence of ATP by ELISA analysis.
Details: not given
Target sequence in this assay (P11362 whole entry): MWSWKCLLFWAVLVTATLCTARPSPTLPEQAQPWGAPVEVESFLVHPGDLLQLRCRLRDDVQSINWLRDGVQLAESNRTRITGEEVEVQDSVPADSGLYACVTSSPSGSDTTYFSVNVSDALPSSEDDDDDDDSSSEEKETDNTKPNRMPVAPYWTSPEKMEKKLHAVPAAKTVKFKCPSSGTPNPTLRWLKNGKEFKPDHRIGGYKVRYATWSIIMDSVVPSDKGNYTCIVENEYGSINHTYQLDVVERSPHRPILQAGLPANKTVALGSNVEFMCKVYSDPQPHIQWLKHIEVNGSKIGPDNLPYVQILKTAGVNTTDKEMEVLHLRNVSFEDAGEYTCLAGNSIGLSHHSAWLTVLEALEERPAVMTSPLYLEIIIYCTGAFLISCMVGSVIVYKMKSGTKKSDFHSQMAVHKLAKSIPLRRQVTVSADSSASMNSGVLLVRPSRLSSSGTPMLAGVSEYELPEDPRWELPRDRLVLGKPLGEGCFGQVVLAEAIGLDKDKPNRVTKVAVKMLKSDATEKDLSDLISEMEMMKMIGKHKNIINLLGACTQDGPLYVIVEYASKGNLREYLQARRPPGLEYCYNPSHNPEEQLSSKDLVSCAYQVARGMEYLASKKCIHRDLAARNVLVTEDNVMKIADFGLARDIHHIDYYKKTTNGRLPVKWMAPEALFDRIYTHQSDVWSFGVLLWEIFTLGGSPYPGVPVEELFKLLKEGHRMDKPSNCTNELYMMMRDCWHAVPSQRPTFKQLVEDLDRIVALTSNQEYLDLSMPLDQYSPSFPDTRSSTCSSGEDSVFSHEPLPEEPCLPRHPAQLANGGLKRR
`C=CC(=O)N1CCC(n2nc3c(=O)[nH]nc(N)c3c2-c2oc3cc(C)ccc3c2C)CC1`: the half-inhibitory concentration (IC50) was found to be 2.3 nM.
The same measure, in the same setting: next, `C=CC(=O)N1CCC(n2nc3c(=O)[nH]nc(N)c3c2-c2oc3ccc(C)cc3c2C)CC1`: 8 nM.
As for `C#CC(=O)N1CCC(n2nc3c(=O)[nH]nc(N)c3c2-c2oc3ccc(C)cc3c2C)CC1`, the 50% inhibitory concentration (IC50) was 0.9 nM.
Turning to `CCC#CC(=O)N1CCCC(n2nc3c(=O)[nH]nc(N)c3c2-c2oc3ccc(C)cc3c2C)C1` (racemic), the IC50 turned out to be 25.4 nM.
On the same count and under the same terms, next, `C=CC(=O)N1CCCC(n2nc3c(=O)[nH]nc(N)c3c2-c2oc3ccc(Cl)cc3c2C)C1` (racemic): 6.4 nM.
The same measure, in the same setting: next, `Cc1ccc2oc(-c3c4c(N)n[nH]c(=O)c4nn3C3CCCN(C(=O)C#CCO)C3)c(C)c2c1` (racemic): 21.9 nM.
`C=CC(=O)N1CCC(n2nc3c(=O)[nH]nc(N)c3c2-c2oc3ccc(Cl)cc3c2C)CC1`: the IC50 stood at 2 nM.
On to `CC#CC(=O)N1CCCC(n2nc3c(=O)[nH]nc(N)c3c2-c2oc3ccc(C)cc3c2C)C1` (racemic), for which the IC50 was 27.3 nM.
Same read-out and setting: next, `C=CC(=O)N1CCC(n2nc3c(=O)[nH]nc(N)c3c2-c2oc3cc(OC)ccc3c2C)CC1`: 101 nM; `CC#CC(=O)N1CCC(n2nc3c(=O)[nH]nc(N)c3c2-c2oc3ccc(C)cc3c2C)CC1`: 6.7 nM.
Same read-out and setting: next, `C=CC(=O)N1CCC(n2nc3c(=O)[nH]nc(N)c3c2-c2oc3cccc(OC)c3c2C)CC1`: 111 nM; `Cc1ccc2oc(-c3c4c(N)n[nH]c(=O)c4nn3C3CCN(C(=O)C#CCO)CC3)c(C)c2c1`: 2.2 nM; `CCC#CC(=O)N1CCC(n2nc3c(=O)[nH]nc(N)c3c2-c2oc3ccc(C)cc3c2C)CC1`: 7.71 nM.

Tested on in another series: not listed separately
Kind of series: Stability in rat whole blood assessed as parent compound remaining measured upto 5 hrs by LC-MS/MS analysis. It is filed as ADME, tissue-based.
Details: not given
Turning to `C=CC(=O)N1CCC(n2nc3c(=O)[nH]nc(N)c3c2-c2oc3ccc(C)cc3c2C)CC1`, the Stability entry was “Stable”.
The same measure, in the same setting: next, `C#CC(=O)N1CCC(n2nc3c(=O)[nH]nc(N)c3c2-c2oc3ccc(C)cc3c2C)CC1`: “Unstable”; `CC#CC(=O)N1CCC(n2nc3c(=O)[nH]nc(N)c3c2-c2oc3ccc(C)cc3c2C)CC1`: “Stable”.

The target of a further series is Fibroblast growth factor receptor 2 (Homo sapiens, UniProt P21802). As to the kind of experiment: Inhibition of FGFR2 (unknown origin) using Poly (Glu,Tyr) 4:1 as substrate incubated for 60 mins in presence of ATP by ELISA analysis.
Fibroblast growth factor receptor 2, sequence (P21802 whole entry): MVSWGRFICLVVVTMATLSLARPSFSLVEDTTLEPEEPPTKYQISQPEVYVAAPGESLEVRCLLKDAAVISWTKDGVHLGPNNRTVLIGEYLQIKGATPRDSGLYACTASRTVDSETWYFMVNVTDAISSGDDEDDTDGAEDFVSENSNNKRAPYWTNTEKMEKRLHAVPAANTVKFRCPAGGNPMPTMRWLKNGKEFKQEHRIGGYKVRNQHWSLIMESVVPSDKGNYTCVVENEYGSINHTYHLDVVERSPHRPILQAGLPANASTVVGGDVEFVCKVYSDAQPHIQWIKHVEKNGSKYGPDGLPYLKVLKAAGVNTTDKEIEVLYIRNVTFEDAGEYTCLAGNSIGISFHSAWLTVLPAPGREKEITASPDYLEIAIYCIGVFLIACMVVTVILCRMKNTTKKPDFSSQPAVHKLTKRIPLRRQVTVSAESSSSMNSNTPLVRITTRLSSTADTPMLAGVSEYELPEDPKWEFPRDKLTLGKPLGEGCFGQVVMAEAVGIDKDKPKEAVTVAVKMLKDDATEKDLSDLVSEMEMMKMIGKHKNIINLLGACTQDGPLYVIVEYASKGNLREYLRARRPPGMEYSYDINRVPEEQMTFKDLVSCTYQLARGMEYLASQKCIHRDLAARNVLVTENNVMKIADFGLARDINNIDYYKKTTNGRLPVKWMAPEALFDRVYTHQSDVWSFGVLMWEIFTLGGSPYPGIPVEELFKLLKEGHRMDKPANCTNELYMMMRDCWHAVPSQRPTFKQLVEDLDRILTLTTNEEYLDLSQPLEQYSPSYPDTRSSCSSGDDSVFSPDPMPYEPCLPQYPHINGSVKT
Details: not given
For `C=CC(=O)N1CCC(n2nc3c(=O)[nH]nc(N)c3c2-c2oc3ccc(C)cc3c2C)CC1`, the IC50 was found to be 4.4 nM.

The next series relates to NCI-H1581. Kind of series: Antiproliferative activity against human NCI-H1581 cells expressing FGFR1 assessed as reduction in cell viability measured after 72 hrs. Conditions: NCI-H1581, 72 h. The class given is functional, cell-based.
For `COc1cc(CCc2cc(NC(=O)c3ccc(N4C[C@@H](C)N[C@@H](C)C4)cc3)n[nH]2)cc(OC)c1` [FEXAGRATINIB], the IC50 was found to be 15.8 nM.
